Test results reported in patent US20240116985A1, “STAPLED PEPTIDES AND METHODS THEREOF” (priority 2020, published 2024).
Where two headings read alike, the source gives them in different places.

Biological target: T1, full-length beta-Catenin (Uniprot ID P35222) (Homo sapiens, UniProt P35222)
T1 construct: 10 nM full-length beta-Catenin (Uniprot ID P35222)
T1 sequence (P35222 1-781): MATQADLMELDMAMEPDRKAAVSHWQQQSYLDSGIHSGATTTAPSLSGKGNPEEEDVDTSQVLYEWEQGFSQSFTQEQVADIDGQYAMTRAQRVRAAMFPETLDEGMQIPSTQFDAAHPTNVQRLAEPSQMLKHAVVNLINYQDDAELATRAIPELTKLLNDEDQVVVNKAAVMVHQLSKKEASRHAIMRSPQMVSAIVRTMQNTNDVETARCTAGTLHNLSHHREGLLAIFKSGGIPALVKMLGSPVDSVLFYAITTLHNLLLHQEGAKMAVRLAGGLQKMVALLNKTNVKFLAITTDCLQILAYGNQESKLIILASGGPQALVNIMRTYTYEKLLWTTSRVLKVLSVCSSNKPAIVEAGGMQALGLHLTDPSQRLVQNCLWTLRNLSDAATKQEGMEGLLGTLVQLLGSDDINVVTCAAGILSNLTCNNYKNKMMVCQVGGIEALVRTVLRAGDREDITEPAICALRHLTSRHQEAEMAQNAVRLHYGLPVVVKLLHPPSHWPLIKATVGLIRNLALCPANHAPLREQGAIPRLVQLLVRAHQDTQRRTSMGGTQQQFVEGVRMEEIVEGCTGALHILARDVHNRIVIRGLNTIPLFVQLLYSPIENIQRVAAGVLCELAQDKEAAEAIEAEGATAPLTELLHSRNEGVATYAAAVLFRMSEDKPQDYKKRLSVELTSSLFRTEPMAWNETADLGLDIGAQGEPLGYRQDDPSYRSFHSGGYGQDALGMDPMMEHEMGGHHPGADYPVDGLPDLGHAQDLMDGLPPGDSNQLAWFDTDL
Assay: Fluorescence polarization IC50 (beta-catenin / 5FAM-TCF4 10-53 competition)
Format: binding

[1] = fluorescence polarization, read-out: beta-Catenin FP IC50
[2] = fluorescence polarization, beta-catenin, read-out: FP EC50

IC50 [1] [µM]	IC50 [2] [µM]	IC50 (read-out: beta-Catenin FP IC50) [µM]	SMILES
0.224			C[C@@H]1NC(=O)[C@H](C)NC(=O)[C@H](CC(=O)O)NC(=O)[C@H](CC(=O)O)NC(=O)C2(CCCC=CCCCOC(=O)N3CC[C@@](C(=O)N[C@@H](Cc4ccsc4)C(=O)N[C@@H](Cc4csc5ccccc45)C(=O)N[C@@H](CCC(N)=O)C(N)=O)(C3)NC(=O)[C@H](CC(N)=O)NC(=O)[C@H](Cc3ccccc3)NC1=O)CCCC=CCS(=O)(=O)N1CCCC1C(=O)N[C@@H](CC(=O)O)C(=O)N[C@@H](CC(C)(C)C)C(=O)N2 (single isomer, unassigned) [I-1576, ProSAm3-Asp-Npg-B5-Asp-Asp-Ala-Ala-Phe-Asn-PyrS2-3Thi-BztA-Gln-NH2]
0.045			C[C@@H]1NC(=O)[C@H](C)NC(=O)[C@H](CC(=O)O)NC(=O)[C@H](CC(=O)O)NC(=O)C2(CCCC=CCCCOC(=O)N3CC[C@@](C(=O)N[C@@H](Cc4ccsc4)C(=O)N[C@@H](Cc4csc5ccccc45)C(=O)N[C@@H](CCC(N)=O)C(N)=O)(C3)NC(=O)[C@H](CC(N)=O)NC(=O)[C@H](Cc3ccccc3)NC1=O)CCCC=CCS(=O)(=O)N1CCCC1C(=O)N[C@@H](CC(=O)O)C(=O)N[C@@H](CC(C)(C)C)C(=O)N2 (single isomer, unassigned) [I-1577, ProSAm3-Asp-Npg-B5-Asp-Asp-Ala-Ala-Phe-Asn-PyrS2-3Thi-BztA-Gln-NH2]
0.099			CC(=O)N1CCC[C@]12CC=CCCCC1(CCCC=CCCCOC(=O)N3CC[C@@](C(=O)N[C@@H](Cc4ccccc4C(F)(F)F)C(=O)N[C@@H](Cc4csc5ccccc45)C(=O)N[C@@H](CO)C(N)=O)(C3)NC(=O)[C@H](CC(C)C)NC(=O)[C@H](Cc3ccccc3)NC(=O)[C@H](C)NC(=O)[C@H](C)NC(=O)[C@H](Cc3ccccc3C(=O)O)NC(=O)[C@H](CC(=O)O)NC1=O)NC(=O)[C@H](CC(C)(C)C)NC(=O)[C@H](CC(=O)O)NC2=O (single isomer, unassigned) [I-1660, Ac-PL3-Asp-Npg-B5-Asp-2COOHF-Ala-Ala-Phe-Leu-PyrS2-2F3MeF-BztA-Ser-NH2]
5.82			CC(=O)N1CCC[C@]12CC=CCCCC1(CCCC=CCCCOC(=O)N3CC[C@@](C(=O)N[C@@H](Cc4ccsc4)C(=O)N[C@@H](Cc4csc5ccccc45)C(=O)N[C@@H](CCC(N)=O)C(N)=O)(C3)NC(=O)[C@H](CC(N)=O)NC(=O)[C@H](Cc3ccccc3)NC(=O)[C@H](C)NC(=O)[C@H](C)NC(=O)[C@H]([C@@H](C)O)NC(=O)[C@H](CC(N)=O)NC1=O)NC(=O)[C@H](CC(C)(C)C)NC(=O)[C@H](Cc1ccccc1C(=O)O)NC2=O (single isomer, unassigned) [I-2136, Ac-PL3-2COOHF-Npg-B5-Asn-Thr-Ala-Ala-Phe-Asn-PyrS2-3Thi-BztA-Gln-NH2]
1.9			CC(=O)N1CCC[C@]12CC=CCCCC1(CCCC=CCCCOC(=O)N3CC[C@@](C(=O)N[C@@H](Cc4ccsc4)C(=O)N[C@@H](Cc4csc5ccccc45)C(=O)N[C@@H](CCC(N)=O)C(N)=O)(C3)NC(=O)[C@H](CC(N)=O)NC(=O)[C@H](Cc3ccccc3)NC(=O)[C@H](C)NC(=O)[C@H](C)NC(=O)[C@H]([C@@H](C)O)NC(=O)[C@H](CC(N)=O)NC1=O)NC(=O)[C@H](CC(C)(C)C)NC(=O)[C@H](Cc1ccccc1C(=O)O)NC2=O (single isomer, unassigned) [I-2137, Ac-PL3-2COOHF-Npg-B5-Asn-Thr-Ala-Ala-Phe-Asn-PyrS2-3Thi-BztA-Gln-NH2]
5			CNC(=O)C[C@@H]1NC(=O)C2(CCCC=CCCCCCC[C@@](C)(C(=O)N[C@@H](Cc3ccccc3)C(=O)N[C@@H](Cc3csc4ccccc34)C(=O)N[C@@H](CCC(N)=O)C(N)=O)NC(=O)[C@H](C(C)C)NC(=O)[C@H](Cc3ccccc3)NC(=O)[C@H](C)NC(=O)[C@H](C)NC(=O)[C@H](CC(=O)O)NC1=O)CCCC=CC[C@]1(CCCN1C(C)=O)C(=O)N[C@@H](CC(=O)O)C(=O)N[C@@H](C)C(=O)N2 (stereo partly drawn) [I-540, Ac-PL3-Asp-Ala-B5-[NHMe]AsnR-Asp-Ala-Ala-Phe-Val-S8-Phe-BztA-Gln-NH2]
	1.14		CC(=O)N1CCC[C@]12CC=CCCCC1(CCCC=CCCCOC(=O)N3CC[C@@](C(=O)N[C@@H](Cc4ccsc4)C(=O)N[C@@H](Cc4csc5ccccc45)C(=O)N[C@@H](CCC(N)=O)C(=O)O)(C3)NC(=O)[C@H](CC(N)=O)NC(=O)[C@H](CC(=O)O)NC(=O)[C@H](C)NC(=O)[C@H](C)NC(=O)[C@H](CC(=O)O)NC(=O)[C@H](CC(=O)O)NC1=O)NC(=O)[C@H](CC(C)(C)C)NC(=O)[C@H](Cc1ccccc1)NC2=O (stereo partly drawn) [I-1027, Ac-PL3-Phe-Npg-B5-Asp-Asp-Ala-Ala-Asp-Asn-PyrS2-3Thi-BztA-Gln-OH]
		0.368	CC(=O)N1CCC[C@]12CC=CCCCC1(CCCC=CCCCOC(=O)N3CC[C@@](C(=O)N[C@@H](Cc4ccccc4Cl)C(=O)N[C@@H](Cc4csc5ccccc45)C(=O)N4CCC[C@H]4CO)(C3)NC(=O)[C@H](CC(N)=O)NC(=O)[C@H](Cc3ccccc3)NC(=O)[C@H](C)NC(=O)[C@H](C)NC(=O)[C@H](CC(=O)O)NC(=O)[C@H](CC(=O)O)NC1=O)NC(=O)[C@H](CC(C)(C)C)NC(=O)[C@H](CC(=O)O)NC2=O (stereo partly drawn) [I-1084, Ac-PL3-Asp-Npg-B5-Asp-Asp-Ala-Ala-Phe-Asn-PyrS2-2C1F-BztA-Proo1]
0.005			CC(=O)N1CCC[C@]12CC=CCCCC1(CCCC=CCCCOC(=O)N3CC[C@@](C(=O)N[C@@H](Cc4ccccc4Cl)C(=O)N[C@@H](Cc4csc5ccccc45)C(=O)N[C@@H](CN4CCOCC4)C(N)=O)(C3)NC(=O)[C@H](CC(N)=O)NC(=O)[C@H](Cc3ccccc3)NC(=O)[C@H](C)NC(=O)[C@H](C)NC(=O)[C@H](CC(=O)O)NC(=O)[C@H](CC(=O)O)NC1=O)NC(=O)[C@H](CC(C)(C)C)NC(=O)[C@H](CC(=O)O)NC2=O (stereo partly drawn) [I-1133, Ac-PL3-Asp-Npg-B5-Asp-Asp-Ala-Ala-Phe-Asn-PyrS2-2C1F-BztA-MorphAla-NH2]
0.006	0.006		CC(=O)N1CCC[C@]12CC=CCCCC1(CCCC=CCCCOC(=O)N3CC[C@@](C(=O)N[C@@H](Cc4ccccc4Cl)C(=O)N[C@@H](Cc4csc5ccccc45)C(=O)N[C@@H](CN4CCOCC4)C(N)=O)(C3)NC(=O)[C@H](CC(N)=O)NC(=O)[C@H](Cc3ccccc3)NC(=O)[C@H](C)NC(=O)[C@H](C)NC(=O)[C@H](CC(=O)O)NC(=O)[C@H](CC(=O)O)NC1=O)NC(=O)[C@H](CC(C)(C)C)NC(=O)[C@H](CC(=O)O)NC2=O (stereo partly drawn) [I-1134, Ac-PL3-Asp-Npg-B5-Asp-Asp-Ala-Ala-Phe-Asn-PyrS2-2C1F-BztA-MorphAla-NH2]

SMILES	IC50 [1] [µM]	IC50 [2] [µM]	IC50 (read-out: beta-Catenin FP IC50) [µM]
CC(=O)N1CCC[C@]12CC=CCCCC1(CCCC=CCCCOC(=O)N3CC[C@@](C(=O)N[C@@H](Cc4ccsc4)C(=O)N[C@@H](Cc4csc5ccccc45)C(=O)N[C@@H](CCC(N)=O)C(N)=O)(C3)NC(=O)[C@H](CC(C)C)NC(=O)C(Cc3cccc(C(=O)Oc4ccccc4)c3)NC(=O)[C@H](C)NC(=O)[C@H](C)NC(=O)[C@H](CN(CC(=O)O)CC(F)(F)F)NC(=O)[C@H](CC(=O)O)NC1=O)NC(=O)[C@H](CC(C)(C)C)NC(=O)[C@H](CC(=O)O)NC2=O (single isomer, unassigned) [I-2150, Ac-PL3-Asp-Npg-B5-Asp-TfeGA-Ala-Ala-3CO2PhF-Leu-PyrS2-3Thi-BztA-Gln-NH2]	0.647		
